Data taken from patent US10577362B2, “Substituted 2, 4-diamino-quinoline derivatives for use in the treatment of proliferative diseases” (GENOSCIENCE PHARMA, priority 2016, dated 2020).

Legend:
[1] = system: 786-O (renal adenocarcinoma) cell line; assay: CellTiter-Glo luminescent cell viability assay, 786-O; format: cell-based, human; settings: Homo sapiens, 786-0; for EC50: 786-O cell line, 72 h incubation, CellTiter-Glo, read-out: EC50, growth inhibition of 786-O; for viability at 4 µM / viability at 10 µM: 786-O, 72 h; for viability at 4 µM: compound at 4 μM; for viability at 10 µM: compound at 10 μM
Outline: (§1)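 72 h compound exposure, 37 °C, 5% CO2, 10% FBS medium; ATP luminescence read after 30 min RT equilibration. Viability as % of H2O/DMSO diluent control; EC50 = dose giving 50% of control signal. Duplicate points minimum.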

[2] = system: MOLM-14 (acute myeloid leukemia) cell line; assay: CellTiter-Glo luminescent cell viability assay, MOLM-14; format: cell-based, human; settings: Homo sapiens; for viability at 4 µM: MOLM-14, compound at 4 μM; for viability at 4 µM / viability at 10 µM: 72 h; for viability at 10 µM: MOLM-14, compound at 10 μM; for EC50: MOLM-14 cell line, 72 h incubation, CellTiter-Glo, read-out: EC50, growth inhibition of MOLM-14
Outline: (§2)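 Cells were cultured at 37 °C, 5% CO2 with 10% FBS; adherent lines were plated overnight, suspension MOLM-14 plated 1 h before dosing. Compounds in H2O or DMSO were added at various concentrations for 72 h, and viability was read by luminescence. EC50 is the dose reducing signal to 50% of diluent control.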

[3] = system: Huh7 (hepatocellular carcinoma) cell line; assay: CellTiter-Glo luminescent cell viability assay, Huh7; format: cell-based, human; settings: Homo sapiens, Huh-7; for viability at 4 µM: Huh7, compound at 4 μM; for viability at 4 µM / viability at 10 µM: 72 h; for viability at 10 µM: Huh7, compound at 10 μM; for EC50: Huh7 cell line, 72 h incubation, CellTiter-Glo, read-out: EC50, growth inhibition of Huh7
Outline: as §2

[4] = system: A375 (malignant melanoma) cell line; assay: CellTiter-Glo luminescent cell viability assay, A375; format: cell-based, human; settings: Homo sapiens, A-375; for viability at 4 µM: A375, compound at 4 μM; for viability at 4 µM / viability at 10 µM: 72 h; for viability at 10 µM: A375, compound at 10 μM; for EC50: A375 cell line, 72 h incubation, CellTiter-Glo, read-out: EC50, growth inhibition of A375
Outline: as §1

[5] = system: HCT-116 (colorectal carcinoma) cell line; assay: CellTiter-Glo luminescent cell viability assay, HCT-116; format: cell-based, human; settings: Homo sapiens; for viability at 4 µM: HCT-116, compound at 4 μM; for viability at 4 µM / viability at 10 µM: 72 h; for viability at 10 µM: HCT-116, compound at 10 μM; for EC50: HCT-116 cell line, 72 h incubation, CellTiter-Glo, read-out: EC50, growth inhibition of HCT-116
Outline: as §1

[6] = system: PANC-1 (prancreatic carcinoma) cell line; assay: CellTiter-Glo luminescent cell viability assay, PANC-1; format: cell-based; settings: Homo sapiens; for viability at 4 µM: PANC-1, 4 μM; for viability at 4 µM / viability at 10 µM: 72 h, % of signal of diluent-treated cultures; for viability at 10 µM: PANC-1, 10 μM; for EC50: PANC-1 cell line, 72 h incubation, CellTiter-Glo, read-out: EC50 (growth inhibition assay of PANC-1 cell line)
Protocol: All cell lines were maintained in medium containing 1% penicillin-streptomycin (Dutscher, P06-07100) and 10% Fetal Bovine Serum (Hyclone Dutscher, RZK35922) cultured at 37° C. with 5% CO2. HepG2 (hepatocellular carcinoma), cell line was cultured in Dulbecco's modified Eagle's medium low glucose (Gibco, 21885025), Huh7 (hepatocellular carcinoma), HCT-116 (colorectal carcinoma), PANC-1 (prancreatic carcinoma) and A375 (malignant melanoma) cell lines were cultured in Dulbecco's modified Eagle's medium (Dutscher, L0103). MOLM-14 (acute myeloid leukemia) cell line was maintained in MEM alpha medium (Gibco, 22561-021). 786-0 (renal adenocarcinoma) cell lines were maintained in RPMI 1640 medium (Dutscher, L0498).
Cell viability was measured using the CellTiter-Glo® luminescent cell viability assay as described by the manufacturer (Promega, Ref G7571) using an Infinite F200Pro luminometer (Tecan). Briefly, for adherent cells, cells were plated onto 96-well plates (white with clear bottom) in 90 μL of media per well and were allowed to grow overnight before the assay. For cells growing in suspension, cells were plated onto 96-well plates 1 h before the assay.
Compounds were resuspended in H2O or DMSO and added at different concentrations to each well, and cell cultures were incubated for 72 h. Each diluent (H2O or DMSO) were used as a control, and all compounds were tested in a constant percentage of H2O or DMSO. On the day of the reading, plates are equilibrated 30 min at room temperature before the addition of 100 μL of CellTiter-Glo® and luminescence was measured using an Infinite F200Pro (Tecan). % cell viability were expressed as a percentage of the signal obtained for cell cultures treated with diluent. EC50 values were determined as the dose of compound required to reduce luminescent values to 50% of the signal obtained for cell cultures treated with diluent. The experimental data were analyzed using a computer program, Graphpad Prism v5 (GraphPad Software, Inc. La Jolla, Calif.). All points were at least done in duplicate.

[7] = system: HepG2 (hepatocellular carcinoma) cell line; assay: CellTiter-Glo luminescent cell viability assay, HepG2; format: cell-based, human; settings: Homo sapiens; for viability at 4 µM / viability at 10 µM: HepG2, HepG, 72 h; for viability at 4 µM: compound at 4 μM; for viability at 10 µM: compound at 10 μM; for EC50: HepG2 cell line, 72 h incubation, CellTiter-Glo, read-out: EC50, growth inhibition of HepG2
Outline: as §2

Row | SMILES | EC50 [1] [µM] | viability at 4 µM [1] [%] | viability at 10 µM [1] [%] | viability at 4 µM [2] [%] | viability at 10 µM [2] [%] | EC50 [2] [µM] | viability at 4 µM [3] [%] | viability at 10 µM [3] [%] | EC50 [3] [µM] | viability at 4 µM [4] [%] | viability at 10 µM [4] [%] | EC50 [4] [µM] | viability at 4 µM [5] [%] | viability at 10 µM [5] [%] | EC50 [5] [µM] | viability at 4 µM [6] [%] | viability at 10 µM [6] [%] | EC50 [6] [µM] | viability at 4 µM [7] [%] | viability at 10 µM [7] [%] | also measured
1 | CC(C)(C)NC1CCN(c2c(C#N)c(Nc3ccccc3C(F)(F)F)nc3ccccc23)CC1 [Compound 3254CN, 2-(2-trifluoromethylphenylamino)-3-cyano-4-[4-(tert-butylamino)piperidin-1-yl]quinoline] | 0.5 to 5 | 6.3 | 0.3 | 81.4 | 0.3 | 5 to 10 | 34.2 | 0.3 | 0.5 to 5 | 0.4 | 0.2 | 0.5 to 5 | 0.3 | 0.2 | 0.5 to 5 | 78.4 | 3 | 5 to 10 | 6.9 | 0.2 | EC50 [7]: 0.5 to 5 µM
2 | CC(C)NC1CCN(c2c(C#N)c(NCc3ccc(Cl)cc3)nc3ccccc23)CC1 [Compound 3174CN, 2-(4-chlorobenzylamino)-3-cyano-4-[4-(iso-propylamino)piperidin-1-yl]quinoline] | 0.5 to 5 | 3.6 | 0.2 | 24.4 | 0.3 | 0.5 to 5 | 62.9 | 0.3 | 0.5 to 5 | 0.3 | 0.2 | 0.5 to 5 | 0.3 | 0.1 | 0.5 to 5 | 84.8 | 0.6 | 5 to 10 | 0.5 | 0.2 | EC50 [7]: 0.5 to 5 µM
3 | CC(C)(C)NC1CCN(c2c(C#N)c(Nc3ccccn3)nc3ccccc23)CC1 [Compound 3278CN, 2-(pyridin-2-ylamino)-3-cyano-4-[4-(tert-butylamino)piperidin-1-yl]quinoline] | – | 90.2 | 68.2 | 96.1 | 88.6 | – | 95 | 51 | – | 90.6 | 45.2 | – | 85.7 | 7.2 | – | 102 | 84.2 | – | 87.1 | 53.2 | –
4 | CC(C)(C)NC1CCN(c2c(C#N)c(Nc3ccccc3)nc3ccccc23)CC1 [Compound 3246CN, 2-(phenylamino)-3-cyano-4-[4-(tert-butylamino)piperidin-1-yl]quinoline] | 5 to 10 | 59 | 0.2 | 91.9 | 3.1 | 5 to 10 | 67.7 | 0.6 | 0.5 to 5 | 66.2 | 0.2 | 0.5 to 5 | 3 | 0.1 | 0.5 to 5 | 88.2 | 38.8 | 5 to 10 | 53.2 | 0.2 | EC50 [7]: 0.5 to 5 µM
